Source: PMC5454942, “The Potential of Triterpenoids from Loquat Leaves (Eriobotrya japonica) for Prevention and Treatment of Skin Disorder” (International Journal of Molecular Sciences, 2017)
In brackets after ≈: the same amount, converted by molar mass. Several values for one entry are separate records, joined by “and”; a condition that tells them apart may be missing. Equal values may be shown once. Read-outs that look alike come from different tables or passages of the source.

Experiments:
B16 melanoma cells [1] = experiment: Anti-melanogenesis assay (melanin content); format: cell-based, mouse; conditions: for inhibition at 1 µg/mL: 1 μg/ml; for inhibition at 10 µg/mL: 10 μg/ml
Procedure: (§1) This assay was performed as described by Arung et al.. The mouse melanoma cell line B16 was obtained from the Riken Bioresource Center Cell Bank (Tsukuba, Japan). The B16 melanoma cells were maintained in Eagle’s Minimal Essential Medium (EMEM, Nissui Chemical, Tokyo) supplemented with 10% (v/v) fetal bovine serum (FBS; Gibco, Carlsbad, CA, USA) and 0.09 mg/mL theophylline (Sigma-Aldrich, St. Louis, MO, USA). […] After 24 h, test samples were dissolved in DMSO (<0.2% per well) and sample solution were added to each well. Arbutin (Tokyo Kasei Kogyo, Tokyo) was used as a positive control. The cells were incubated for an additional 48 h, and then the medium was replaced with fresh medium containing each sample again. After 24 h, the melanin content and the cell viability were measured using a microplate reader (BioTek-ELX800, BioTek Instruments, Winooski, VT, USA) at 405 nm and 570 nm, respectively. Cell viability was measured using the MTT (3-(4,5-dimethylthiazol-2-yl)-2,5-diphenyltetrazolium bromide) method.

[2] = Cell viability of B16 melanoma cells (MTT); conditions: mouse
Procedure: as §1

B16 melanoma cells [3] = experiment: Cell viability of B16 melanoma cells (MTT); conditions: for Inhibition rate (100% − cell viability): B16 cells
Procedure: as §1

mushroom tyrosinase = experiment: Tyrosinase inhibition assay; format: biochemical; conditions: for inhibitory effect on tyrosinase (in words): L-DOPA as substrate; for inhibitory activity on tyrosinase (in words): L-tyrosine as substrate, relatively high concentrations
Procedure: Tyrosinase inhibition activity was evaluated by using L-tyrosine and L-DOPA as substrates, as described. Briefly, 333 μL of 2.5 mM L-tyrosine or L-DOPA solution (Sigma-Aldrich) was mixed with 600 μL of 0.1 M phosphate buffer (pH 6.8) and incubated at 25 °C. Then, 33 μL of the sample solution (dissolved in DMSO in various concentrations) and 33 μL of 1380 units/mL mushroom tyrosinase (Sigma-Aldrich) were added to the mixture. The optical density was measured at 475 nm up to the appropriate time. Kojic acid (Sigma-Aldrich) was used as the positive control; the final concentration is 3.3 μg/mL.

Propionibacterium acnes = experiment: Anti-bacterial assay (growth inhibition, MIC/MBC by broth microdilution); format: cell-based; conditions: for MBC / MIC: P. acnes, broth microdilution; for MBC: read-out: MBC; for inhibition at 100 µg/mL: read-out: Inhibition Rate (P. acnes growth); for activity against P. acnes (in words): at their maximum solubility
Procedure: The antibacterial assay was based mostly on the methods described by Tanaka et al. with slight modification. Propionibacterium acne (NBRC 107605) was used for the antibacterial assay. A single colony of the test strain was taken and 5 mL of Gifu anaerobic medium (GAM) broth (Nissui, Tokyo) was added to it. This culture was incubated at 37 °C for 30 h. It was then added to the bacterial suspension to prepare a bacterial concentration at 10^5 CFU/mL. The bacterial solution was used for the subsequent antibacterial assay. Each compound was dissolved in DMSO, and benzalkonium chloride (Wako) was used as a positive control. The plate was incubated at 37 °C for 30 h. Finally, bacterial growth was measured by a microplate reader at 630 nm. The MIC and MBC were evaluated by the standard broth microdilution method.

RBL-2H3 cells [4] = experiment: β-hexosaminidase release from IgE-stimulated RBL-2H3 mast cells; format: cell-based, rat; conditions: for IC50: IgE-stimulated RBL-2H3 cells, read-out: IC50 (β-hexosaminidase release)
Procedure: (§2) The anti-allergy assay was based mostly on the methods described by Zhu et al. and Yun et al. with slight modification. Rat basophilic leukemia (RBL-2H3) cells were obtained from the Riken Bio-resource Center Cell Bank (Tsukuba, Japan). RBL-2H3 cells were incubated in EMEM medium containing 10% FBS and 1% antibiotics–antimycotics at 37 °C. The cells were seeded on a 96-well plate (2 × 10^5 cells/well). After 24 h of incubation, the medium was supplemented with 0.5 μg/mL anti-DNP (dinitrophenol) mouse immunoglobulin E (IgE) (Sigma-Aldrich). After an additional 24 h of incubation, the medium was replaced with 100 μL of Tyrode buffer. The sample dissolved in DMSO (<0.5% per well) was added, and the cell plate was incubated again for 30 min, then replaced with 100 μL of tyrode buffer containing 50 μg/mL DNP-bovine serum albumin (BSA) (Invitrogen, Carlsbad, CA, USA). After 1 h of incubation, 50 μL of the supernatant was collected from each well and mixed with 50 μL of substrate solution (p-nitrophenyl-N-acetyl-β-glucosaminide, 2 mM; Sigma-Aldrich) in a new 96-well plate. The mixture was incubated at room temperature on a shaker for 3 h. Finally, 100 μL of stop solution was added, and the absorbance was read at 405 nm. A parallel MTT experiment was performed to measure the cell viability. The MTT experiment was done exactly as described.

[5] = Cell viability of RBL-2H3 cells (parallel MTT); format: cell-based, rat; conditions: rat
Procedure: as §2

RBL-2H3 cells [6] = experiment: Cell viability of RBL-2H3 cells (parallel MTT); format: cell-based, rat; conditions: 25 μg/ml, RBL-2H3 cells
Procedure: as §2

NHDF cells = experiment: Skin type I collagen synthesis promoting assay (ELISA, with MTT); format: cell-based, human; conditions: fold of control
Procedure: The assay for measuring the promotion of skin collagen synthesis was described by Kishikawa et al.. Adult NHDF cells (Lonza, Tokyo) were routinely maintained in 10% FBS and 1% antibiotic-antimycotic (Invitrogen) in Dulbecco’s modified Eagle’s medium (DMEM, Wako). After growing to confluence, cells at a density of 5 × 10^3 cells/well were seeded on 96-well plates for 24 h before the treatment. The medium was replaced with a mixture of 1 μL of sample solution (DMSO < 0.5% per well) and 99 μL of DMEM supplemented with 0.5% FBS. After 72 h of cultivation, the amount of collagen in the medium was measured using a human type I collagen enzyme-linked immunosorbent assay (ELISA) kit (ACEL, Kanagawa, Japan). The amount of collagen production was calculated using a standard curve prepared by measurement by the same ELISA. The cells remaining in the 96-well plate were subjected to an MTT assay. Ascorbic acid (100 μM, Wako) was used as a positive control.

[7] = tested on: inflammation induced by 12-O-tetradecanoylphorbol-13-acetate (TPA); set-up: method as in PMID 16204964, PMID 14745168; conditions: mice; cited from earlier work
[8] = tested on: Epstein–Barr virus early antigen; set-up: method as in PMID 16204964, PMID 14745168; conditions: cited from earlier work
[9] = Mus musculus, B16 cells, read-out: Inhibition rate (100% − melanin synthesis)
[10] = Mus musculus, 2.5 μg/ml, B16 cells, read-out: Inhibition rate (100% − melanin synthesis)
[11] = Mus musculus, 5 μg/ml, B16 cells, read-out: Inhibition rate (100% − melanin synthesis)
[12] = Mus musculus, 20 μg/ml, B16 cells, read-out: Inhibition rate (100% − melanin synthesis)
[13] = Mus musculus, B16 melanoma cells, read-out: IC50 (melanin synthesis)
[14] = Mus musculus, B16 melanoma cells, read-out: IC50 melanin
[15] = Cutibacterium acnes, read-out: MIC
[16] = Cutibacterium acnes, concentration 100 μg/mL
[17] = Rattus norvegicus, RBL-2H3, 25 μg/mL, read-out: Inhibition Rate (β-hexosaminidase release)
[18] = 25 μg/ml, RBL-2H3 cells, read-out: Cell viability

SMILES | S.I (selectivity index, CC50 value/IC50 value) (B16 melanoma cells [1]; B16 melanoma cells) | inhibition at 1 µg/mL (B16 melanoma cells [1]; [9]) [%] | inhibition at 2.5 µg/mL (B16 melanoma cells [1]; [10]) [%] | inhibition at 5 µg/mL (B16 melanoma cells [1]; [11]) [%] | inhibition at 10 µg/mL (B16 melanoma cells [1]; [9]) [%] | inhibition at 20 µg/mL (B16 melanoma cells [1]; [12]) [%] | IC50 (B16 melanoma cells [1]; [13]) [µM] | IC50 (B16 melanoma cells [1]; [14]) [µg/mL] | Inhibition rate (100% − cell viability) (B16 melanoma cells [3]; 1 μg/ml) [%] | Inhibition rate (100% − cell viability) (B16 melanoma cells [3]; 2.5 μg/ml) [%] | Inhibition rate (100% − cell viability) (B16 melanoma cells [3]; 5 μg/ml) [%] | Inhibition rate (100% − cell viability) (B16 melanoma cells [3]; 10 μg/ml) [%] | Inhibition rate (100% − cell viability) (B16 melanoma cells [3]; 20 μg/ml) [%] | inhibitory effect on tyrosinase (in words) (mushroom tyrosinase) | inhibitory activity on tyrosinase (in words) (mushroom tyrosinase) | MBC (Propionibacterium acnes; Cutibacterium acnes) [µg/mL] | MIC (Propionibacterium acnes; [15]) [µg/mL] | inhibition at 100 µg/mL (Propionibacterium acnes; [16]) [%] | activity against P. acnes (in words) (Propionibacterium acnes) | inhibition at 25 µg/mL (RBL-2H3 cells [4]; [17]) [%] | other results
CC1(C)CC[C@]2(C(=O)O)CC[C@]3(C)C(=CC[C@@H]4[C@@]5(C)CC[C@H](O)C(C)(C)[C@@H]5CC[C@]43C)[C@@H]2C1 [Compound 2, Oleanolic acid] | 1.5 | 9.5 ± 4.6 | 27.8 ± 4.8 | 33.5 ± 6 | 45.9 ± 1.5 | 58.6 ± 2.3 | 26.8 | 12.2 | 4.9 ± 4.6 | 7.8 ± 4.1 | 17.0 ± 6.2 | 27.4 ± 7.0 | 54.9 ± 2.3 | no inhibitory effect | moderate inhibitory activity | 200 (≈ 438 µM) | 100 (≈ 219 µM) | 100.4 ± 0.8 | active | 5.8 ± 6.7 | CC50 at 72 h ([2]; B16 melanoma cells): 18.2 µg/mL and 39.9 µM; viability at 25 μg/ml [5, 18]: 102 ± 6.2%
C=C(C)[C@@H]1CC[C@]2(C(=O)O)CC[C@]3(C)[C@H](CC[C@@H]4[C@@]5(C)CC[C@H](O)C(C)(C)[C@@H]5CC[C@]43C)[C@@H]12 [Compound 4, Betulinic acid] | 1.4 | 35.4 ± 0.5 | 44.8 ± 1.4 | 49.7 ± 3.1 | 54 ± 3.3 |  | 11.8 | 5.3 | 1.2 ± 12.0 | 20.8 ± 5.2 | 35.9 ± 5.2 | 58.4 ± 14.1 | 68.1 ± 11.4 | no inhibitory effect | moderate inhibitory activity |  |  | < 0 |  | 29.4 ± 8.1 | inhibition at 0.5 µg/mL (B16 melanoma cells [1]; Mus musculus, 0.5 μg/ml, B16 cells, read-out: Inhibition rate (100% − melanin synthesis)): 23.2 ± 1.4%; CC50 at 72 h [2]: 7.6 µg/mL and 16.7 µM; viability at 25 μg/ml [5, 18]: 97.9 ± 10.6%
C[C@H]1[C@H](C)CC[C@]2(C(=O)O)CC[C@]3(C)C(=CC[C@@H]4[C@@]5(C)C[C@@H](O)[C@@H](O)C(C)(C)[C@@H]5CC[C@]43C)[C@H]12 [Compound 9, 3-epicorosolic acid] |  |  |  |  |  |  |  |  |  | 0.0 ± 10.3 | 0.0 ± 11.8 | 3.4 ± 4.1 | 14.8 ± 4.1 |  |  |  |  |  |  |  | Inhibition rate (100% − melanin synthesis) (B16 melanoma cells [1]; 2.5 μg/ml, B16 cells): 1.0 ± 5.4%; Inhibition rate (100% − melanin synthesis) (B16 melanoma cells [1]; 5 μg/ml, B16 cells): 0.0 ± 5.3%; Inhibition rate (100% − melanin synthesis) (B16 melanoma cells [1]; 20 μg/ml, B16 cells): 7.8± 0.9%; IC50 melanin (B16 melanoma cells [1]; B16 melanoma cells): > 20.0 µg/mL; IC50 (B16 melanoma cells [1]; B16 melanoma cells, read-out: IC50 (melanin synthesis)): > 42.3 µM; CC50 cell viability (B16 melanoma cells [3]; B16 melanoma cells, MTT): > 20.0 µg/mL; CC50 (B16 melanoma cells [3]; read-out: CC50 (cell viability), B16 melanoma cells, MTT): > 42.3 µM; Inhibition Rate (P. acnes growth) (Propionibacterium acnes; concentration 100 μg/mL): – (no inhibition); Inhibition Rate (β-hexosaminidase release) (RBL-2H3 cells [4]; 1 μg/mL): 8.9 ± 5.2%; Inhibition Rate (β-hexosaminidase release) (RBL-2H3 cells [4]; 5 μg/mL): 33.7 ± 6.9%; Inhibition Rate (β-hexosaminidase release) (RBL-2H3 cells [4]; 12.5 μg/mL): 50.7 ± 3.2 %; Inhibition Rate (β-hexosaminidase release) (RBL-2H3 cells [4]; 25 μg/mL): 54.4 ± 4.9 %; IC50 (RBL-2H3 cells [4]): 14.2 µM; Cell viability (RBL-2H3 cells [6]): 98.0 ± 7.7%; CP/CV value (collagen production %/cell viability %) (NHDF cells; 1 μg/mL): 1.2; CP/CV value (collagen production %/cell viability %) (NHDF cells; 5 μg/mL): 1.3; inhibitory activity against TPA-induced inflammation (in words) [7]: significant inhibitory activity; inhibitory activity against TPA-induced Epstein–Barr virus early antigen activation (in words) [8]: significant inhibitory activity
C[C@@H]1CC[C@]2(C(=O)O)CC[C@]3(C)C(=CC[C@@H]4[C@@]5(C)C[C@@H](O)[C@@H](O)C(C)(C)[C@@H]5CC[C@]43C)[C@@H]2[C@]1(C)O [Compound 12, euscaphic acid] | 0.7 |  | 0 | 0 | 35 ± 3.6 | 58.8 | 34 | 16.6 |  | 0.0 ± 6.9 | 0.0 ± 6.6 | 44.9 ± 2.7 | 91.1 ± 1.0 |  |  | 50 (≈ 102 µM) | 50 (≈ 102 µM) | 98.5 ± 1.3 | active | 74.5 ± 1.3 | CC50 at 72 h [2]: 12.5 µg/mL and 25.6 µM; MIC (Propionibacterium acnes): 50/50 μg/mL; inhibition at 1 µg/mL (RBL-2H3 cells [4]; Rattus norvegicus, RBL-2H3, 1 μg/mL, read-out: Inhibition Rate (β-hexosaminidase release)): 10.4 ± 10.8%; inhibition at 5 µg/mL (RBL-2H3 cells [4]; Rattus norvegicus, RBL-2H3, 5 μg/mL, read-out: Inhibition Rate (β-hexosaminidase release)): 37.7 ± 3.9%; inhibition at 12.5 µg/mL (RBL-2H3 cells [4]; Rattus norvegicus, RBL-2H3, 12.5 μg/mL, read-out: Inhibition Rate (β-hexosaminidase release)): 67 ± 1.8%; IC50 (RBL-2H3 cells [4]; Rattus norvegicus): 15.8 µM; viability at 25 μg/ml [5]: 93.9 ± 7.3%; inhibitory activity against TPA-induced inflammation (in words) [7]: significant inhibitory activity; inhibitory activity against TPA-induced Epstein–Barr virus early antigen activation (in words) [8]: significant inhibitory activity
